# Measured values: publication PMC9454456 (Journal of Nuclear Medicine, 2022)
# Columns and labels:
# in vivo [1] = experiment: in vivo; set-up: species or system mice; conditions: mouse, iv, 3.4 MBq, total radioactivity, Biodistribution
# Protocol: Blood and major organs were harvested immediately, weighed, and counted using a γ-counter. The radioactivity of each sample was calculated as the percentage of injected dose per gram of tissue (%ID/g) and corrected for radioactive decay.
# physchem = format: physicochemical; conditions: pH 7.4
# Protocol: The layers were separated by centrifugation at 2,000 rpm (416g) for 5 min. Aliquots of 100 μL were removed from each phase and measured in a Wizard γ-counter (PerkinElmer). Calculated logD7.4 values were expressed as the mean ± SD from 3 experiments.
# NTR1 = biological target: T1, NTR1 (Homo sapiens, UniProt P30989); experiment: Competitive receptor binding assay in NTR1-positive PC3 cells; conditions: 37 kBq tracer, NT 10^-8–10^2 μM as competitive inhibitor, 60 min, 37°C, γ-counter, mean ± SD, read-out: half-maximal inhibitory concentration
# T1 construct: endogenous in cells; host or cells: PC3 human prostate adenocarcinoma cells
# Protocol: After incubation for 60 min at 37°C, the medium of each well was removed and the cells were washed twice with PBS. The removed medium and washing PBS were collected to represent the amount of free radioligand. The adherent cells were lysed with NaOH (0.1 M, 200 μL) and harvested after being washed twice by PBS. Finally, the cell-bound radioactivity (3 × 10^5 cells/mL) and the amount of free radioligand were measured in a γ-counter. The half-maximal inhibitory concentration was calculated using GraphPad Prism software. […] The radioactivity of adherent cells (3 × 10^5 cells/mL) was then measured after they were extracted with NaOH (0.1 M, 200 μL) and washed twice with PBS.
# PC3-xenografted mice [2] = conditions: mouse, in vivo
# Protocol: (§1) Images were reconstructed using 3-dimensional ordered-subset expectation maximization with attenuation correction. Regions of interest were drawn over the tumors and main organs, and average signal levels in the regions were measured using an Inveon Research Workplace workstation.
# in vivo [3] = conditions: mouse, iv, 7.4 MBq, total radioactivity
# Protocol: as §1
# LNCap-xenografted mice = experiment: Small-animal PET/CT imaging, LNCap xenografts; conditions: LNCap xenograft, 7.4 MBq i.v., 1 h after injection, mean ± SD
# Protocol: as §1
# PC3-xenografted mice [4] = experiment: Small-animal PET/CT imaging, PC3 xenografts; conditions: PC3 xenograft, 7.4 MBq i.v., 1 h after injection, mean ± SD
# Protocol: as §1
# T1 sequence (P30989 whole entry): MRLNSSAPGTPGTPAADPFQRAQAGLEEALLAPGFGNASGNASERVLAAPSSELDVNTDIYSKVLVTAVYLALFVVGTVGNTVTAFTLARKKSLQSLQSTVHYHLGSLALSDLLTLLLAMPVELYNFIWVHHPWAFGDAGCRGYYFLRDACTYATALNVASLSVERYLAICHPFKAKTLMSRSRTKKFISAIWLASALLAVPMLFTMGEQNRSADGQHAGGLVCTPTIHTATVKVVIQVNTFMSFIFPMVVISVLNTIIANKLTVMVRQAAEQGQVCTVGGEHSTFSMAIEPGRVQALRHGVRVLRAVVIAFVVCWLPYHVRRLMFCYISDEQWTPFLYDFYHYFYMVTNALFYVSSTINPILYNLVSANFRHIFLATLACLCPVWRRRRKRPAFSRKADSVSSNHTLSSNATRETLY
smiles,measurement,setting,value
"CC(=O)NC(CCCCNC(=O)CN1CCN(CC(=O)O)CCN(CC(=O)O)CCN(CC(=O)O)CC1)C(=O)N1CCCC1C(=O)N(C)C(CCCNC(=N)N)C(=O)NC(CCCNC(=N)N)C(=O)N1CCCC1C(=O)NC(Cc1ccc(O)cc1)C(=O)NC(C(=O)NC(CC(C)C)C(=O)O)C(C)(C)C (centres unmarked) [^68Ga-DOTA-NT-20.3, metal not drawn]",tissue uptake at 5 min,in vivo [1]; Blood,8.11 ± 1.54 %ID/g
same,tissue uptake at 0.25 h,in vivo [1]; Blood,4.15 ± 0.59 %ID/g
same,tissue uptake at 0.5 h,in vivo [1]; Blood,2.56 ± 0.23 %ID/g
same,tissue uptake at 1 h,in vivo [1]; Blood,1.12 ± 0.22 %ID/g
same,tissue uptake at 2 h,in vivo [1]; Blood,0.43 ± 0.08 %ID/g
same,tissue uptake at 5 min,in vivo [1]; Bone,2.27 ± 0.29 %ID/g
same,tissue uptake at 0.25 h,in vivo [1]; Bone,2.35 ± 0.52 %ID/g
same,tissue uptake at 0.5 h,in vivo [1]; Bone,1.27 ± 0.08 %ID/g
same,tissue uptake at 1 h,in vivo [1]; Bone,0.86 ± 0.17 %ID/g
same,tissue uptake at 2 h,in vivo [1]; Bone,0.53 ± 0.17 %ID/g
same,tissue uptake at 5 min,in vivo [1]; Brain,1.91 ± 0.39 %ID/g
same,tissue uptake at 0.25 h,in vivo [1]; Brain,1.35 ± 0.15 %ID/g
same,tissue uptake at 0.5 h,in vivo [1]; Brain,0.88 ± 0.1 %ID/g
same,tissue uptake at 1 h,in vivo [1]; Brain,0.6 ± 0.05 %ID/g
same,tissue uptake at 2 h,in vivo [1]; Brain,0.33 ± 0.1 %ID/g
same,tissue uptake at 5 min,in vivo [1]; Fat,1.42 ± 0.23 %ID/g
same,tissue uptake at 0.25 h,in vivo [1]; Fat,1.11 ± 0.23 %ID/g
same,tissue uptake at 0.5 h,in vivo [1]; Fat,0.62 ± 0.11 %ID/g
same,tissue uptake at 1 h,in vivo [1]; Fat,0.32 ± 0.03 %ID/g
same,tissue uptake at 2 h,in vivo [1]; Fat,0.32 ± 0.07 %ID/g
same,tissue uptake at 5 min,in vivo [1]; Heart,7.7 ± 0.9 %ID/g
same,tissue uptake at 0.25 h,in vivo [1]; Heart,3.88 ± 0.18 %ID/g
same,tissue uptake at 0.5 h,in vivo [1]; Heart,2.78 ± 0.36 %ID/g
same,tissue uptake at 1 h,in vivo [1]; Heart,1.57 ± 0.18 %ID/g
same,tissue uptake at 2 h,in vivo [1]; Heart,0.58 ± 0.11 %ID/g
same,tissue uptake at 5 min,in vivo [1]; Intestine,3.28 ± 0.3 %ID/g
same,tissue uptake at 0.25 h,in vivo [1]; Intestine,2.31 ± 0.92 %ID/g
same,tissue uptake at 0.5 h,in vivo [1]; Intestine,1.47 ± 0.26 %ID/g
same,tissue uptake at 1 h,in vivo [1]; Intestine,0.77 ± 0.24 %ID/g
same,tissue uptake at 2 h,in vivo [1]; Intestine,0.38 ± 0.04 %ID/g
same,tissue uptake at 5 min,in vivo [1]; Kidney,18.4 ± 1.27 %ID/g
same,tissue uptake at 0.25 h,in vivo [1]; Kidney,21.2 ± 1.95 %ID/g
same,tissue uptake at 0.5 h,in vivo [1]; Kidney,23.1 ± 1.94 %ID/g
same,tissue uptake at 1 h,in vivo [1]; Kidney,24.6 ± 0.98 %ID/g
same,tissue uptake at 2 h,in vivo [1]; Kidney,26.1 ± 0.79 %ID/g
same,tissue uptake at 5 min,in vivo [1]; Liver,5.46 ± 1.01 %ID/g
same,tissue uptake at 0.25 h,in vivo [1]; Liver,3.17 ± 0.45 %ID/g
same,tissue uptake at 0.5 h,in vivo [1]; Liver,2.02 ± 0.48 %ID/g
same,tissue uptake at 1 h,in vivo [1]; Liver,1.44 ± 0.2 %ID/g
same,tissue uptake at 2 h,in vivo [1]; Liver,0.86 ± 0.49 %ID/g
same,tissue uptake at 5 min,in vivo [1]; Lung,5.18 ± 0.16 %ID/g
same,tissue uptake at 0.25 h,in vivo [1]; Lung,3.28 ± 0.62 %ID/g
same,tissue uptake at 0.5 h,in vivo [1]; Lung,1.91 ± 0.15 %ID/g
same,tissue uptake at 1 h,in vivo [1]; Lung,1.2 ± 0.23 %ID/g
same,tissue uptake at 2 h,in vivo [1]; Lung,0.75 ± 0.15 %ID/g
same,tissue uptake at 5 min,in vivo [1]; Muscle,1.93 ± 0.65 %ID/g
same,tissue uptake at 0.25 h,in vivo [1]; Muscle,1.44 ± 0.17 %ID/g
same,tissue uptake at 0.5 h,in vivo [1]; Muscle,0.96 ± 0.08 %ID/g
same,tissue uptake at 1 h,in vivo [1]; Muscle,0.51 ± 0.02 %ID/g
same,tissue uptake at 2 h,in vivo [1]; Muscle,0.32 ± 0.04 %ID/g
same,tissue uptake at 5 min,in vivo [1]; Pancreas,2.88 ± 0.61 %ID/g
same,tissue uptake at 0.25 h,in vivo [1]; Pancreas,2.03 ± 0.26 %ID/g
same,tissue uptake at 0.5 h,in vivo [1]; Pancreas,1.59 ± 0.6 %ID/g
same,tissue uptake at 1 h,in vivo [1]; Pancreas,1.05 ± 0.07 %ID/g
same,tissue uptake at 2 h,in vivo [1]; Pancreas,0.36 ± 0.04 %ID/g
same,tissue uptake at 5 min,in vivo [1]; Spleen,3.97 ± 0.39 %ID/g
same,tissue uptake at 0.25 h,in vivo [1]; Spleen,2.81 ± 0.47 %ID/g
same,tissue uptake at 0.5 h,in vivo [1]; Spleen,1.85 ± 0.43 %ID/g
same,tissue uptake at 1 h,in vivo [1]; Spleen,1.06 ± 0.27 %ID/g
same,tissue uptake at 2 h,in vivo [1]; Spleen,0.41 ± 0.04 %ID/g
same,tissue uptake at 5 min,in vivo [1]; Stomach,3.56 ± 0.31 %ID/g
same,tissue uptake at 0.25 h,in vivo [1]; Stomach,2.49 ± 0.35 %ID/g
same,tissue uptake at 0.5 h,in vivo [1]; Stomach,1.75 ± 0.38 %ID/g
same,tissue uptake at 1 h,in vivo [1]; Stomach,0.91 ± 0.18 %ID/g
same,tissue uptake at 5 min,in vivo [1]; Testis,1.62 ± 0.11 %ID/g
same,tissue uptake at 0.25 h,in vivo [1]; Testis,1.31 ± 0.05 %ID/g
same,tissue uptake at 0.5 h,in vivo [1]; Testis,0.8 ± 0.06 %ID/g
same,tissue uptake at 1 h,in vivo [1]; Testis,0.42 ± 0.04 %ID/g
same,tissue uptake at 2 h,in vivo [1]; Testis,0.31 ± 0.1 %ID/g
same,tissue uptake at 5 min,in vivo [1]; Tumor,2.81 ± 0.39 %ID/g
same,tissue uptake at 0.25 h,in vivo [1]; Tumor,3.93 ± 0.43 %ID/g
same,tissue uptake at 0.5 h,in vivo [1]; Tumor,5.7 ± 0.8 %ID/g
same,tissue uptake at 1 h,in vivo [1]; Tumor,6.26 ± 0.41 %ID/g
same,tissue uptake at 2 h,in vivo [1]; Tumor,3.74 ± 0.56 %ID/g
same,logD,physchem,-3.68 ± 0.14
same,IC50,NTR1,7.59 ± 0.41 nM
same,tumor retention time,PC3-xenografted mice [2],up to 4 h
same,tissue uptake at 0.5 h,in vivo [3],4.53 ± 1.26 %ID/g
O=C([O-])CN(CCN(CC(=O)[O-])Cc1cc(CCC(=O)NCCCCCC(=O)NCCCC[C@H](NC(=O)N[C@@H](CCC(=O)O)C(=O)O)C(=O)O)ccc1[O-])Cc1cc(CCC(=O)O)ccc1[O-].[68Ga+3].[OH3+] [^68Ga-PSMA-11],tumor uptake (PET region of interest),LNCap-xenografted mice,8.60 ± 2.11 %ID/g
same,tumor uptake (PET region of interest),PC3-xenografted mice [4],0.53 ± 0.05 %ID/g
